In ChEMBL document CHEMBL1121931, “Synthesis and pharmacological evaluation of conformationally restricted phenothiazine analogues” (J Med Chem, 1982):

Columns and labels:
Dopamine receptor = Dopamine receptor (Bos taurus, UniProt Q95136+P20288); assay: Compound was tested for its ability to displace [3H]spiroperidol from dopamine receptor; format: protein assay
Rattus norvegicus [1] = species: Rattus norvegicus; assay: Compound's potency to increase the level of the dopamine metabolite homovanillic acid (HVA), levels in male wistar rats at 0.54 ug/g dose; format: functional
Rattus norvegicus [2] = species: Rattus norvegicus; assay: Compound's potency to increase the level of the dopamine metabolite DOPAC levels in male wistar rats at 0.95 ug/g dose; format: functional
Rattus norvegicus [3] = species: Rattus norvegicus; assay: Compound's potency to increase the level of the dopamine metabolite DOPAC levels in male wistar rats at 1.26 ug/g dose; format: functional
Rattus norvegicus [4] = species: Rattus norvegicus; assay: Compound's potency to increase the level of the dopamine metabolite homovanillic acid (HVA), levels in male wistar rats at 1.10 ug/g dose; format: functional
Rattus norvegicus [5] = species: Rattus norvegicus; assay: Compound's potency to increase the level of the dopamine metabolite homovanillic acid (HVA), levels in male wistar rats at 0.39 ug/g dose; format: functional
Rattus norvegicus [6] = species: Rattus norvegicus; assay: Compound's potency to increase the level of the dopamine metabolite DOPAC levels in male wistar rats at 0.62 ug/g dose; format: functional
Rattus norvegicus [7] = species: Rattus norvegicus; assay: Compound's potency to increase the level of the dopamine metabolite homovanillic acid (HVA), levels in male wistar rats at 0.44 ug/g dose; format: functional
Rattus norvegicus [8] = species: Rattus norvegicus; assay: Compound's potency to increase the level of the dopamine metabolite DOPAC levels in male wistar rats at 0.73 ug/g dose; format: functional
Rattus norvegicus [9] = species: Rattus norvegicus; assay: Compound's potency to increase the level of the dopamine metabolite DOPAC levels in male wistar rats at 0.6 ug/g dose; format: functional
Rattus norvegicus [10] = species: Rattus norvegicus; assay: Compound's potency to increase the level of the dopamine metabolite DOPAC levels in male wistar rats at 1.15 ug/g dose; format: functional
Rattus norvegicus [11] = species: Rattus norvegicus; assay: Compound's potency to increase the level of the dopamine metabolite homovanillic acid (HVA), levels in male wistar rats at 0.63 ug/g dose; format: functional

Question: For `CN(C)CC1Cc2cccc3c2N(C1)c1cc(Cl)ccc1S3` (stereo not given), which IC50 (Dopamine receptor) is on record?
Answer: 13000 nM

Question: And the Control (Rattus norvegicus [1])?
Answer: 70%

Question: And the Control (Rattus norvegicus [2])?
Answer: 89%

Question: For `CN(C)CC1Cc2c(Cl)ccc3c2N(C1)c1ccccc1S3` (stereo not given), which IC50 (Dopamine receptor) is on record?
Answer: 1200 nM

Question: And the Control (Rattus norvegicus [3])?
Answer: 118%

Question: And the Control (Rattus norvegicus [4])?
Answer: 157%

Question: Which results are given for `CN(C)C1CCN2c3cc(Cl)ccc3Sc3cccc1c32` (stereo not given)?
Answer: Control (Rattus norvegicus [5]): 88%; Control (Rattus norvegicus [6]): 98%

Question: For `CN(C)C1CCN2c3ccccc3Sc3ccc(Cl)c1c32` (stereo not given), which Control (Rattus norvegicus [7]) is on record?
Answer: 100%

Question: And the Control (Rattus norvegicus [8])?
Answer: 115%

Question: Which results are given for `CN(C)C1CCN2c3ccccc3Sc3cccc1c32` (stereo not given)?
Answer: Control (Rattus norvegicus [7]): 93%; Control (Rattus norvegicus [9]): 95%

Question: How did the IC50 (Dopamine receptor) turn out when `CN(C)CC1Cc2cccc3c2N(C1)c1ccccc1S3` (stereo not given) was run?
Answer: 0.0014 nM

Question: And the Control (Rattus norvegicus [10])?
Answer: 107%

Question: And the Control (Rattus norvegicus [11])?
Answer: 90%
